Laboratory results: patent publication US8901307B2, “Chemical compounds 251” (AstraZeneca AB, priority 2008, dated 2014)
Where a name gives a salt, the structure may show the parent alone.

Tests used:
human His-PIM1 [2-313] = molecular target: T1, human His-PIM1 [2-313] (Homo sapiens, UniProt P11309); assay: PIM1 in-vitro mobility shift assay (Caliper LC3000, FL-Ahx-Bad phosphorylation); format: biochemical; settings: 1.5 h; percent inhibition at 0.3 uM compound; read-out: PIM1 % I at 0.3 uM
T1 construct: purified human His-PIM1 [2-313] enzyme; His (N); purchased University of Dundee, Scotland; host or cells: baculovirus system
Outline: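 Compound preincubated 20 min at 25 °C with 2.4 nM PIM1, 3.6 µM FL-Ahx-Bad peptide and 240 µM ATP (1.2× mix concentrations). Reaction started with 24 mM MgCl2 mix, run 90 min at 25 °C, EDTA-stopped. Phospho/unphospho peptide separated by microfluidic mobility shift; percent inhibition from ratiometric turnover.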

human His-PIM2 [23-299] = molecular target: T2, human His-PIM2 [23-299] (Homo sapiens, UniProt Q9P1W9); assay: PIM2 in-vitro mobility shift assay (Caliper LC3000, FL-Ahx-Bad phosphorylation); format: biochemical; settings: 1.5 h; percent inhibition at 0.3 uM compound; read-out: PIM2 % I at 0.3 uM
T2 construct: purified human His-PIM2 [23-299] enzyme; His (N); host or cells: E. coli
T2 sequence (Q9P1W9 23-299): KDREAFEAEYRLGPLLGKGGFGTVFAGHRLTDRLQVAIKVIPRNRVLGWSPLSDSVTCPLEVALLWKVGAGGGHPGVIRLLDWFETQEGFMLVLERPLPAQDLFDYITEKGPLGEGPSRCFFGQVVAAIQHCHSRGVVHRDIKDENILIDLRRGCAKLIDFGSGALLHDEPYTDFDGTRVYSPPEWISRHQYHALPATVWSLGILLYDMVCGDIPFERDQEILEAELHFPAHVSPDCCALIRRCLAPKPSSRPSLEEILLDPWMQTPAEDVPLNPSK

T1 sequence (P11309 2-313): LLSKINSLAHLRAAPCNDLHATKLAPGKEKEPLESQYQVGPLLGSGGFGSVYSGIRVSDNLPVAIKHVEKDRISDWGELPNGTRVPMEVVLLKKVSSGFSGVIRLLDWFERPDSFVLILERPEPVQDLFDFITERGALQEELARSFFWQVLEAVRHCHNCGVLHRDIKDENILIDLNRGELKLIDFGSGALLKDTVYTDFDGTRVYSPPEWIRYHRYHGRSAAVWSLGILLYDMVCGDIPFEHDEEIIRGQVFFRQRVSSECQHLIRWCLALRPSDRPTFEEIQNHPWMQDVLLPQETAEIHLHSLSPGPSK

| inhibition at 0.3 µM (human His-PIM1 [2-313]) [%] | inhibition at 0.3 µM (human His-PIM2 [23-299]) [%] | Compound |
| --- | --- | --- |
| 87.9 | 63.2 | NC(=O)NCC(=O)N[C@H]1CCN(c2c(Cl)cccc2/C=C2\SC(=O)NC2=O)C1 [Example 138] |
| 50 | 26.3 | CN(C)CCN(C)c1ccccc1/C=C1\SC(=O)NC1=O [Example 47, (5Z)-5-{2-[[2-(dimethylamino)ethyl](methyl)amino]benzylidene}-1,3-thiazolidine-2,4-dione] |
| 87.6 | 19.7 | O=C1NC(=O)/C(=C/c2cc(C(F)(F)F)cc(Cl)c2N2CCN(CCCO)CC2)S1 [Example 23] |
| > 95 | 92.3 | NC[C@H]1CCN(c2c(Cl)cccc2/C=C2\SC(=O)NC2=O)C1 [Example 122B, (R,Z)-5-(2-(3-(aminomethyl)pyrrolidin-1-yl)-3-chlorobenzylidene)thiazolidine-2,4-dione] |
| > 95 | 92.9 | CN(C)[C@H]1CCN(c2c(Cl)cccc2/C=C2\SC(=O)NC2=O)C1 [Example 38, (S,Z)-5-(3-chloro-2-(3-(dimethylamino)pyrrolidin-1-yl)benzylidene)thiazolidine-2,4-dione] |
| < 5 | 6.6 | COc1cc(/C=C2\SC(=O)NC2=O)ccc1OCCN1CCCCC1 [Example 59, (Z)-5-(3-methoxy-4-(2-(piperidin-1-yl)ethoxy)benzylidene)thiazolidine-2,4-dione] |
| 89.7 | 69.4 | C[C@@H]1CN(c2c(Cl)cccc2/C=C2\SC(=O)NC2=O)C[C@H](C)N1 [Example 37, (Z)-5-(3-chloro-2-((3S,5R)-3,5-dimethylpiperazin-1-yl)benzylidene)thiazolidine-2,4-dione] |
| 92 | 63 | COc1ccc(N2CC[C@H](N(C)C)C2)c(C=C2SC(=O)NC2=O)c1 [Example 84G, (S)-5-(2-(3-(dimethylamino)pyrrolidin-1-yl)-5-methoxybenzylidene)thiazolidine-2,4-dione] |
| > 95 | > 95 | COc1cccc(/C=C2\SC(=O)NC2=O)c1N1CC[C@H](NCCCN)C1 [Example 124] |
| 93 | 93.9 | COc1cc(/C=C2\SC(=O)NC2=O)c(N2CC[C@@H](N)C2)cc1OC [Example 100, (R,Z)-5-(2-(3-aminopyrrolidin-1-yl)-4,5-dimethoxybenzylidene)thiazolidine-2,4-dione hydrochloride] |
| < 5 | < 5 | CC(=O)Nc1ccc(N2CCC(N(C)C)C2)c(/C=C2\SC(=O)NC2=O)c1 (stereo not shown) [Example 131B] |
| 41.9 | 9 | O=C1NC(=O)/C(=C/c2n[nH]c3ccccc23)S1 [Example 68, (Z)-5-((1H-indazol-3-yl)methylene)thiazolidine-2,4-dione] |
| 86.5 | 19.1 | O=C1NC(=O)/C(=C/c2cc(C(F)(F)F)cc(Cl)c2N2CCN(CCN3CCOCC3)CC2)S1 [Example 20] |
| > 95 | > 95 | CNCCN1CCN(c2ccccc2/C=C2\SC(=O)NC2=O)CC1 [Example 114, (Z)-5-(2-(4-(2-(methylamino)ethyl)piperazin-1-yl)benzylidene)thiazolidine-2,4-dione hydrochloride] |
| > 95 | 90.8 | CN(C)[C@H]1CCN(c2ccc(F)cc2C=C2SC(=O)NC2=O)C1 [Example 84K, (S)-5-(2-(3-(dimethylamino)pyrrolidin-1-yl)-5-fluorobenzylidene)thiazolidine-2,4-dione] |
| 11 | < 5 | CC(C)(C)OC(=O)N1CCN(c2ccc(C(F)(F)F)cc2/C=C2\SC(=O)NC2=O)CC1 [Example 55, (Z)-tert-butyl 4-(2-((2,4-dioxothiazolidin-5-ylidene)methyl)-4-(trifluoromethyl)phenyl)piperazine-1-carboxylate] |
| > 95 | > 95 | N[C@@H]1CCCN(c2c(/C=C3\SC(=O)NC3=O)cccc2OCC2CCCCC2)C1 [Example 122K, (R,Z)-5-(2-(3-aminopiperidin-1-yl)-3-(cyclohexylmethoxy)benzylidene)thiazolidine-2,4-dione hydrochloride] |
| 90.7 | 33.5 | CN(C)C1CCN(c2ccc([N+](=O)[O-])cc2/C=C2\SC(=O)NC2=O)C1 (stereo not shown) [Example 56, (Z)-5-(2-(3-(dimethylamino)pyrrolidin-1-yl)-5-nitrobenzylidene)thiazolidine-2,4-dione hydrochloride] |
| 47.8 | 29.6 | NC(=O)COc1cccc(/C=C2\SC(=O)NC2=O)c1 [Example 84C, (Z)-2-(3-((2,4-dioxothiazolidin-5-ylidene)methyl)phenoxy)acetamide] |
| 86.1 | 75.2 | O=C(CN1CC[S+]([O-])CC1)N[C@H]1CCN(c2c(Cl)cccc2/C=C2\SC(=O)NC2=O)C1 [Example 142] |
| < 5 | < 5 | COc1cccc(/C=C2\SC(=O)NC2=O)c1N1C[C@@H](C)N[C@@H](C)C1 [Example 35, (Z)-5-(2-((3S,5R)-3,5-dimethylpiperazin-1-yl)-3-methoxybenzylidene)thiazolidine-2,4-dione] |
| 91.5 | 60.8 | CCCN(CCC)[C@@H]1CCCN(c2c(Cl)cccc2/C=C2\SC(=O)NC2=O)C1 [Example 148, (R,Z)-5-(3-chloro-2-(3-(dipropylamino)piperidin-1-yl)benzylidene)thiazolidine-2,4-dione] |
| > 95 | 75.4 | O=C1NC(=O)/C(=C/c2cccc(Cl)c2N2CCC[C@@H](NCCC(F)(F)F)C2)S1 [Example 149] |
| > 95 | > 95 | O=C1NC(=O)/C(=C/c2cccc(Cl)c2N2CCCNCC2)S1 [Example 122N, (Z)-5-(3-chloro-2-(1,4-diazepan-1-yl)benzylidene)thiazolidine-2,4-dione hydrochloride] |
| 74.3 | 36.4 | CC(=O)NCC(=O)N[C@H]1CCN(c2c(Cl)cccc2/C=C2\SC(=O)NC2=O)C1 [Example 147] |
| > 95 | 80.1 | CN(C)CC(=O)N[C@H]1CCN(c2c(Cl)cccc2/C=C2\SC(=O)NC2=O)C1 [Example 145] |
| > 95 | 89.8 | COc1cc(/C=C2\SC(=O)NC2=O)c(N2CC[C@H](N(C)C)C2)cc1OC [Example 40, (S,Z)-5-(2-(3-(dimethylamino)pyrrolidin-1-yl)-4,5-dimethoxybenzylidene)thiazolidine-2,4-dione] |
| > 95 | 38.3 | CN1CCC(N2CCN(c3c(Cl)cc(C(F)(F)F)cc3/C=C3\SC(=O)NC3=O)CC2)CC1 [Example 19] |

| Compound | inhibition at 0.3 µM (human His-PIM1 [2-313]) [%] | inhibition at 0.3 µM (human His-PIM2 [23-299]) [%] |
| --- | --- | --- |
| NCCCN[C@H]1CCN(c2ccc(C(F)(F)F)cc2/C=C2\SC(=O)NC2=O)C1 [Example 123, (S,Z)-5-(2-(3-(3-aminopropylamino)pyrrolidin-1-yl)-5-(trifluoromethyl)benzylidene)thiazolidine-2,4-dione hydrochloride] | > 95 | > 95 |
